Source: publication PMC8657793, “Synthesis, In Vitro and In Silico Anticancer Activity of New 4-Methylbenzamide Derivatives Containing 2,6-Substituted Purines as Potential Protein Kinases Inhibitors” (International Journal of Molecular Sciences, 2021)

Columns and labels:
PDGFRβ = target: T1, PDGFRβ (Homo sapiens, UniProt P09619); test: Kinase Selectivity Profiling System TK-1 / ADP-Glo, PDGFRβ; type: biochemical
T1 construct: purchased Promega
Experimental: (§1) At the end, 10 μL of kinase detection reagent was added into the well and incubated for 30 min to produce a luminescence signal.

PDGFRα = target: T2, PDGFRα (Homo sapiens, UniProt P16234); test: Kinase Selectivity Profiling System TK-1 / ADP-Glo, PDGFRα; type: biochemical
T2 construct: purchased Promega
Description: Considering the presence of a purine ring in the compounds under study, type 1 binding to protein kinases could be expected. We investigated the kinase selectivity of targeted compounds 7–16 against eight receptor tyrosine kinases including EGFR, HER2 and HER4 (epidermal growth factor receptors), IGF1R (insulin-like growth factor 1 receptor), InsR (insulin receptor), KDR (vascular endothelial growth factor receptor 2—VEGFR-2), and PDGFRα and PDGFRβ (platelet-derived growth factor receptors). The assay was performed using the Kinase Selectivity Profiling System TK-1 (Promega, Madison, WI, USA) and ADP-Glo™ Kinase assay kit (Promega, Madison, WI, USA). Kinase activity was measured by quantifying the […] following a kinase reaction. Enzymatic activity inhibition percentage caused by studied compounds was evaluated at the single concentration of 1 μM.
The Abl1 inhibitory activity assay was performed using Abl1 Kinase Enzyme System (Promega, Madison, WI, USA) and ADP-Glo™ Kinase assay kit (Promega, Madison, WI, USA) according to the Technical Manual. The general procedure was as follows: kinase (2.5 ng/reaction) was incubated with substrate (1 μg), compound (0.5 and 10µM) and ATP (50 μM) in a commercial buffer solution with a reaction volume of 5 μL. In every experiment, no-enzyme and no-compound control reactions were included to represent background luminescence (0% activity) and uninhibited kinase activity (100% activity), respectively. The assay 384-well plate was incubated at room temperature for 1 h. Afterwards, 5μL of ADP-Glo reagent was added into each well to stop the reaction and consume the […] within 40 min. At the end, 10 μL of kinase detection reagent was added into the well and incubated for 30 min to produce a luminescence signal. Kinase activity assays were performed in triplicate at each inhibitor concentration. The luminescence was measured with the help of a Tecan Infinite M200 Plate Reader. The luminescence data were analyzed using the computer software, Magellan™. Percent kinase activity (KA) was calculated by subtracting the average no-enzyme control luminescence values from all kinase-containing reactions with or without compound, then converting these net luminescence values to percent activity based on the no-compound control reactions representing 100% kinase activity. Inhibition (I, %) was calculated as 100%-KA.
The single-dose screening of kinase selectivity was performed using Kinase Selectivity Profiling System TK-1 (Promega, Madison, WI, USA) and ADP-Glo™ Kinase assay kit (Promega, Madison, WI, USA) according to Technical Manual. Kinase Selectivity Profiling System TK-1 includes a set of kinases from the tyrosine kinase family (EGFR, HER2, HER4, IGF1R, InsR, KDR, PDGFα, PDGFβ) in 8-tube strip format. The general procedure was as follow: kinase working stock (2 µL/reaction) was incubated with ATP/substrate working stock (1 µL) and compound (1 µM) in a commercial buffer solution with a reaction volume of 5 μL. The reaction conditions and inhibition (%) calculation were the same as in Section 3.3.1. Kinase activity assays were performed in duplicate at each inhibitor.

HER4 = target: T3, HER4 (Homo sapiens, UniProt Q15303); test: Kinase Selectivity Profiling System TK-1 / ADP-Glo, HER4; type: biochemical
T3 construct: purchased Promega
Experimental: as §1

KDR (VEGFR-2) = target: T4, KDR (VEGFR-2) (Homo sapiens, UniProt P35968); test: Kinase Selectivity Profiling System TK-1 / ADP-Glo, KDR; type: biochemical
T4 construct: purchased Promega
Experimental: as §1

Bcr–Abl1 kinase = target: T5, Bcr–Abl1 kinase (Homo sapiens, UniProt P00519); test: Abl1 Kinase Enzyme System / ADP-Glo kinase assay; type: biochemical; settings: ATP 50 μM; for inhibition at 0.5 µM: 0.5 µM compound; for inhibition at 10 µM: 10 µM compound
T5 construct: purchased Promega
Experimental: as §1

IGF1R = target: T6, IGF1R (Homo sapiens, UniProt P08069); test: Kinase Selectivity Profiling System TK-1 / ADP-Glo, IGF1R; type: biochemical
T6 construct: purchased Promega
Experimental: as §1

EGFR = target: T7, EGFR (Homo sapiens, UniProt P00533); test: Kinase Selectivity Profiling System TK-1 / ADP-Glo, EGFR; type: biochemical
T7 construct: purchased Promega
Experimental: as §1

InsR = target: T8, InsR (Homo sapiens, UniProt P06213); test: Kinase Selectivity Profiling System TK-1 / ADP-Glo, InsR; type: biochemical
T8 construct: purchased Promega
Experimental: as §1

[1] = system: RPMI 1788 (B lymphocyte, normal human lymphoblastoid cells); test: MTT assay on normal cells RPMI 1788; type: cell-based
Experimental: (§2) To determine the selectivity of the synthesized compounds 7–16 toward various cancer cells and normal human cells, the anti-proliferative activity against K562 (chronic myelogenous leukemia), HL-60 (promyelocytic leukemia), MCF-7 (breast adenocarcinoma), HeLa (cervix carcinoma), HepG2 (human liver cancer), A549 (lung carcinoma), OKP-GS (renal cell carcinoma), and normal cells RPMI 1788 (B lymphocyte, the human cell line) was investigated.
(§3) Each in vitro experiment was performed at least in triplicate and the standard deviation of absorbance was less than 10% of the mean. For the in vitro assays, a stock solution (1% DMSO in the appropriate buffer with the tested compound diluted under sonication) was prepared from which several dilutions were made with the appropriate buffer.
Human cell lines were obtained from the Institute of Cytology, Russian Academy of Sciences. The cell lines studied were maintained in RPMI 1640 medium (AppliChem, Darmstadt, Germany) supplemented with 20% (HL-60, RPMI 1788) fetal calf serum (HyClone, Cramlington, UK), in DMEM (A 549) and Eagle’s MEM (AppliChem) (MCF7, HeLa) with 10% fetal calf serum (HyClone). Cells were cultivated at 37 °C in a humidified atmosphere of 5% CO2. Cellular sensitivities to synthesized compounds and standards were measured with the MTT assay. Cells were plated in triplicate in 96-well plates (10^5 cells/well for suspended cell cultures and 5 × 10^3 cells/well for monolayer cultures); on the same day (suspended cell cultures) or on the following day (monolayer cultures), compounds were added at the appropriate dilutions. […] The reference drugs were imatinib, sorafenib and nilotinib. Plates were incubated under standard conditions for 48 h. Thereafter, 10 μL MTT (Sigma) in phosphate-buffered saline (5 mg/mL) was added. The plates were incubated for an additional 4 h and 150 μL dimethylsulphoxide (DMSO) was added to dissolve the formazan crystals. The optical density was read on a HALO MPR-95 Microplate Reader (Dynamica Scientific Ltd., Melbourne, Victoria, Australia) at 570 nm. The antiproliferative effects were taken as degrees of inhibition of tumor cells (%). The average of three parallel measurements was calculated for each concentration of test compound. The degree of cell growth suppression was plotted as a function of the logarithm of the concentration. The half maximal inhibitory concentration (IC50) was determined graphically for active compounds.

[2] = system: HL-60 (promyelocytic leukemia); test: MTT anti-proliferative assay, HL-60; type: cell-based; settings: Homo sapiens, 48 h
Experimental: (§4) For the in vitro assays, a stock solution (1% DMSO in the appropriate buffer with the tested compound diluted under sonication) was prepared from which several dilutions were made with the appropriate buffer.
(§5) Human cell lines were obtained from the Institute of Cytology, Russian Academy of Sciences. […] Plates were incubated under standard conditions for 48 h.

HER2 = target: T9, HER2 (Homo sapiens, UniProt P04626); test: Kinase Selectivity Profiling System TK-1 / ADP-Glo, HER2; type: biochemical
T9 construct: purchased Promega
Experimental: as §1

[3] = system: OKP-GS (renal cell carcinoma); test: MTT anti-proliferative assay, OKP-GS; type: cell-based; settings: Homo sapiens, 48 h
Experimental: as §2, §3
Human cell lines were obtained from the Institute of Cytology, Russian Academy of Sciences. The cell lines studied were maintained in RPMI 1640 medium (AppliChem, Darmstadt, Germany) supplemented with 20% (HL-60, RPMI 1788) fetal calf serum (HyClone, Cramlington, UK), in DMEM (A 549) and Eagle’s MEM (AppliChem) (MCF7, HeLa) with 10% fetal calf serum (HyClone). Cells were cultivated at 37 °C in a humidified atmosphere of 5% CO2. Cellular sensitivities to synthesized compounds and standards were measured with the MTT assay. Cells were plated in triplicate in 96-well plates (10^5 cells/well for suspended cell cultures and 5 × 10^3 cells/well for monolayer cultures); on the same day (suspended cell cultures) or on the following day (monolayer cultures), compounds were added at the appropriate dilutions. Anti-proliferative activity was studied at concentrations 0.1–50.0 µM. The reference drugs were imatinib, sorafenib and nilotinib. Plates were incubated under standard conditions for 48 h. Thereafter, 10 μL MTT (Sigma) in phosphate-buffered saline (5 mg/mL) was added. The plates were incubated for an additional 4 h and 150 μL dimethylsulphoxide (DMSO) was added to dissolve the formazan crystals. The optical density was read on a HALO MPR-95 Microplate Reader (Dynamica Scientific Ltd., Melbourne, Victoria, Australia) at 570 nm. The antiproliferative effects were taken as degrees of inhibition of tumor cells (%). The average of three parallel measurements was calculated for each concentration of test compound. The degree of cell growth suppression was plotted as a function of the logarithm of the concentration. The half maximal inhibitory concentration (IC50) was determined graphically for active compounds.

[4] = system: K562 (chronic myelogenous leukemia); test: MTT anti-proliferative assay, K562; type: cell-based; settings: Homo sapiens, 48 h
Experimental: as §4, §5

T5 sequence (P00519 whole entry): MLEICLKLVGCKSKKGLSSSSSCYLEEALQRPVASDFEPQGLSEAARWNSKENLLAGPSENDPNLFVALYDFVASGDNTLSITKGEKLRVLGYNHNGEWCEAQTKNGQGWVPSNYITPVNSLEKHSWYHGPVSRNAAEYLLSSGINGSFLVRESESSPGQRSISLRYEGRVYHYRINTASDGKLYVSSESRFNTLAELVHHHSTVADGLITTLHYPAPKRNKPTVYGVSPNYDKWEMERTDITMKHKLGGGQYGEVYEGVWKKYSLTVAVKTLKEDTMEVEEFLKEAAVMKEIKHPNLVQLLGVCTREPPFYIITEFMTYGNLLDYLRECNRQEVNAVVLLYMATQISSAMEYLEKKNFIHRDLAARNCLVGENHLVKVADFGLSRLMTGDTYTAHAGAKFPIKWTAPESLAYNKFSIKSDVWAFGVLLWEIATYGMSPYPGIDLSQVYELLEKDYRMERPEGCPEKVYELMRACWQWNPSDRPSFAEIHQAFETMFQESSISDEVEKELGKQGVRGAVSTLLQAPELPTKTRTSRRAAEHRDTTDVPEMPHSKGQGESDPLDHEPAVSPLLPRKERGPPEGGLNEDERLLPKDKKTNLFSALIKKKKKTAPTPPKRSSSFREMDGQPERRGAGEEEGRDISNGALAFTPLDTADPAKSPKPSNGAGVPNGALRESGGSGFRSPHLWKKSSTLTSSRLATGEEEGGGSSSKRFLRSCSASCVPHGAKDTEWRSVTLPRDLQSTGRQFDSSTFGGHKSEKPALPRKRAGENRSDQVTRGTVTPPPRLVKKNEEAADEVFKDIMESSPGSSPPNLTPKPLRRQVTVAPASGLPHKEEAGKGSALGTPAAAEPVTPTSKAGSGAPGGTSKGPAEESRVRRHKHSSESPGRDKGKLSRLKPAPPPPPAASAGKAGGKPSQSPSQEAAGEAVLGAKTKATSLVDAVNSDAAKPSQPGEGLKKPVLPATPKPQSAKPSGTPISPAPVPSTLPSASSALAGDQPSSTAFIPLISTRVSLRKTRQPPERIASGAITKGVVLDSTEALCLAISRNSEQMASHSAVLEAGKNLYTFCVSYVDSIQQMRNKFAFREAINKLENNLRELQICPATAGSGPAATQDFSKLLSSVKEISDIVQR
T1 sequence (P09619 33-1106): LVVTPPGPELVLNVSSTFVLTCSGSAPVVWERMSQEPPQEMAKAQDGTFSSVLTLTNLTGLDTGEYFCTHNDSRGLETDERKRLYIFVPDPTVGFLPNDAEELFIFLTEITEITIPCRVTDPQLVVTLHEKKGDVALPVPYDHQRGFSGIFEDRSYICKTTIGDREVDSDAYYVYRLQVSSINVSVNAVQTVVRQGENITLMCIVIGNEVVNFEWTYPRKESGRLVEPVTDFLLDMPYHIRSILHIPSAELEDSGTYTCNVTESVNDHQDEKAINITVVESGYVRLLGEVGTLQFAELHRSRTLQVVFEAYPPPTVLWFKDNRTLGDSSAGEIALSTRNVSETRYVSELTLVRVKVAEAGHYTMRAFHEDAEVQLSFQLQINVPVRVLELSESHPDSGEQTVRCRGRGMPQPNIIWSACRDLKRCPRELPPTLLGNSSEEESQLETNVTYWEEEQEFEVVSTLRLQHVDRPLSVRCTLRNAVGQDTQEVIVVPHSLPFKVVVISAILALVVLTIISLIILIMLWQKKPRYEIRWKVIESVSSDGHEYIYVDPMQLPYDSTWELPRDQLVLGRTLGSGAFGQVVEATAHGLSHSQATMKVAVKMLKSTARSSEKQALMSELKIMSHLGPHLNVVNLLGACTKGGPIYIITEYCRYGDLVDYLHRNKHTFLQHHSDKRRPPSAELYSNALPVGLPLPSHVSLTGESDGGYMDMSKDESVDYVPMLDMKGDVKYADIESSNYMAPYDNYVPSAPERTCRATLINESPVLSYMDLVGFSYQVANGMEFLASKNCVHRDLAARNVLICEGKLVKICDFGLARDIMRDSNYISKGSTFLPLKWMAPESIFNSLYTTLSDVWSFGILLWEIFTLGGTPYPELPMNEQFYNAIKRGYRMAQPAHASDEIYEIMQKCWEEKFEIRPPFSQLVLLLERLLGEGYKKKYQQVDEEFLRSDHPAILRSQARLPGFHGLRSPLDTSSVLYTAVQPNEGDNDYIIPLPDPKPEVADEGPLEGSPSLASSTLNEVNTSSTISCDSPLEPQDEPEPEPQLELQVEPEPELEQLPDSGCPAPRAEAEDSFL
T9 sequence (P04626 23-1255): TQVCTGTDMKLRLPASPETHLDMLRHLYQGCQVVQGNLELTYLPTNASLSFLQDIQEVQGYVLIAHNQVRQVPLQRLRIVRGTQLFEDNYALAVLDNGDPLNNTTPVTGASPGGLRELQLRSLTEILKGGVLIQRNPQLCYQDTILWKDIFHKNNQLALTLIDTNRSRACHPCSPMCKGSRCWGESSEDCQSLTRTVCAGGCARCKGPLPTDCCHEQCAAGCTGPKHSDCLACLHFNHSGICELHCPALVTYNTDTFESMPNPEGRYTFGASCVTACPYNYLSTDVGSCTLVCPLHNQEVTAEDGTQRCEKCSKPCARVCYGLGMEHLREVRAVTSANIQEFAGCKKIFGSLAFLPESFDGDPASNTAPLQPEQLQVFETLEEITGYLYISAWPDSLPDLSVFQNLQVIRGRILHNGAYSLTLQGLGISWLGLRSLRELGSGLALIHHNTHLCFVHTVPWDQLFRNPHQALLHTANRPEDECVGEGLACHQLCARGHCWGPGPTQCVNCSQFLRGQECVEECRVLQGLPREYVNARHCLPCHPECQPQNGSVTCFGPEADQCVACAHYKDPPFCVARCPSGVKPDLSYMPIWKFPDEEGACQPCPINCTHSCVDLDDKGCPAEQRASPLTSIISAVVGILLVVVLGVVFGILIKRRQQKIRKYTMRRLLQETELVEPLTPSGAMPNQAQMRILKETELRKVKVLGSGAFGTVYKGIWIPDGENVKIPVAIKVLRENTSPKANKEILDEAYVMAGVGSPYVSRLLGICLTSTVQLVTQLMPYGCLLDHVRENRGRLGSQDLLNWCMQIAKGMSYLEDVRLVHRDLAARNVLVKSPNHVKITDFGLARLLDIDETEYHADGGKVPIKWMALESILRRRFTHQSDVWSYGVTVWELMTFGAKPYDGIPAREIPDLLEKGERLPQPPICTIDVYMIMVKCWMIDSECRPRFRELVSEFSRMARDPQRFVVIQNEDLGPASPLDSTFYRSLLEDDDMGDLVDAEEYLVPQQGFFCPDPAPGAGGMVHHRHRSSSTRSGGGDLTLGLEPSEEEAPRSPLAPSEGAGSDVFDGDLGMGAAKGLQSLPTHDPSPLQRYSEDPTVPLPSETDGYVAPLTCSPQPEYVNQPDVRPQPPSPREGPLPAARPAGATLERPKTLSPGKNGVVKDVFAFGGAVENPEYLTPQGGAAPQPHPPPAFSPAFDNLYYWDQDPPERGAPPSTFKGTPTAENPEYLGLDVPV
T7 sequence (P00533 25-1210): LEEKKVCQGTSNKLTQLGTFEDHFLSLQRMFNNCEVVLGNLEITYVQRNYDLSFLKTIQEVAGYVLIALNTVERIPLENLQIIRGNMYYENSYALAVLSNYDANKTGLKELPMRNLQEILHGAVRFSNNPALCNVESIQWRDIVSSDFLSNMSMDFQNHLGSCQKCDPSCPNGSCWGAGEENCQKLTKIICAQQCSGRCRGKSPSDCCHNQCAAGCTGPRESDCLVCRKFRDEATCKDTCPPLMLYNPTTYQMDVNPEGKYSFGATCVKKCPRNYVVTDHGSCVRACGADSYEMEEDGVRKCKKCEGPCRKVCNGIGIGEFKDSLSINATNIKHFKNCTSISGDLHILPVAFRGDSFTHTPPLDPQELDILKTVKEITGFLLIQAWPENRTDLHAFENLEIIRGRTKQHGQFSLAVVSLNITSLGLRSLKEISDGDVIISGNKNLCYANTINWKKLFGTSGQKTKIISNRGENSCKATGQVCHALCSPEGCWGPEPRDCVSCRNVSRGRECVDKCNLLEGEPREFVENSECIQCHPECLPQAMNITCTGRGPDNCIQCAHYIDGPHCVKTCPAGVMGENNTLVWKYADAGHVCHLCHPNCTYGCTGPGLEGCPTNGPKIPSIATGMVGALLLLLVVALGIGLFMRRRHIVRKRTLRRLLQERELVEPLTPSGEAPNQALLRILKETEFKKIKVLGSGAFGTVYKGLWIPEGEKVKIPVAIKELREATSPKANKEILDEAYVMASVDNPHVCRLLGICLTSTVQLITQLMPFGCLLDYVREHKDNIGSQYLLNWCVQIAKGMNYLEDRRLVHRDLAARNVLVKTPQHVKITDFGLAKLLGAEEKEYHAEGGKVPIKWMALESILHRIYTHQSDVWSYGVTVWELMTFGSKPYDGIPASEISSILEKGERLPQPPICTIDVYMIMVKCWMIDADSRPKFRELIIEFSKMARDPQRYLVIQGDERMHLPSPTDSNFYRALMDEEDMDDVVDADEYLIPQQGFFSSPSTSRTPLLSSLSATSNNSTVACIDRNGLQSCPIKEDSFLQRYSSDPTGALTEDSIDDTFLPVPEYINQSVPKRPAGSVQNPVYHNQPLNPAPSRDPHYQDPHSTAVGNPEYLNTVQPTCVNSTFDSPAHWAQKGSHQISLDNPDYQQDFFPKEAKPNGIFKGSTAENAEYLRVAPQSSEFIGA

SMILES | inhibition at 1 µM (PDGFRβ) | inhibition at 1 µM (PDGFRα) | inhibition at 1 µM (HER4) | inhibition at 1 µM (KDR (VEGFR-2)) | melting point | inhibition at 0.5 µM (Bcr–Abl1 kinase) | inhibition at 10 µM (Bcr–Abl1 kinase) | inhibition at 1 µM (IGF1R) | inhibition at 1 µM (EGFR) | inhibition at 1 µM (InsR) | IC50 [2] | % Inhibition at 1 µM, HER2 (HER2) | inhibition at 1 µM (HER2) | IC50 [3] | IC50 [4] | inhibition at 100 µM [1]
Cc1cn(-c2cc(NC(=O)c3ccc(Cn4cnc5c(N)nc(F)nc54)cc3)cc(C(F)(F)F)c2)cn1 [Compound 11, 4-((6-Amino-2-fluoro-9H-purin-9-yl)methyl)-N-(3-(4-methyl-1H-imidazol-1-yl)-5-(trifluoromethyl)phenyl)benzamide] | 0% | 4% | 0% | 12% | 230 to 232 °C | 37% | 37% | 0% | 14% | 0% | 29.7 ± 1.19 µM |  | 0% |  |  | 93.4%
Cc1ccc(NC(=O)c2ccc(CN3CCN(C)CC3)cc2)cc1Nc1nccc(-c2cccnc2)n1 [Imatinib, imatinib, reference compound] |  |  |  |  |  |  |  |  |  |  |  |  |  |  |  | 99%
CS(=O)(=O)CCNCc1ccc(-c2ccc3ncnc(Nc4ccc(OCc5cccc(F)c5)c(Cl)c4)c3c2)o1 [Lapatinib, lapatinib, reference compound] | 7% | 4% | 94% |  |  |  |  | 0% |  | 0% |  |  | 68% |  |  | 
Cc1cn(-c2cc(NC(=O)c3ccc(C)c(Nc4nccc(-c5cccnc5)n4)c3)cc(C(F)(F)F)c2)cn1 [Nilotinib, nilotinib, reference compound] |  |  |  |  |  |  |  |  |  |  | 55 µM |  |  | 55 µM | < 100 nM | 71%

Further lines, with some results ahead:

inhibition at 1 µM (PDGFRβ) | inhibition at 1 µM (PDGFRα) | inhibition at 1 µM (HER4) | inhibition at 1 µM (KDR (VEGFR-2)) | melting point | inhibition at 0.5 µM (Bcr–Abl1 kinase) | inhibition at 10 µM (Bcr–Abl1 kinase) | inhibition at 1 µM (IGF1R) | inhibition at 1 µM (EGFR) | inhibition at 1 µM (InsR) | IC50 [2] | % Inhibition at 1 µM, HER2 (HER2) | inhibition at 1 µM (HER2) | IC50 [3] | IC50 [4] | SMILES | inhibition at 100 µM [1]
32% | 13% | 23% | 14% | 309 to 311 °C | 23% | 34% | 5% | 15% | 0% | > 50 µM | 26% | 22 to 26% |  |  | Nc1nc(F)nc2c1ncn2Cc1ccc(C(=O)Nc2cccc(C(F)(F)F)c2)cc1 [Compound 8, 4-((6-Amino-2-fluoro-9H-purin-9-yl)methyl)-N-(3-(trifluoromethyl)phenyl)benzamide] | 33.5%
36% | 45% | 0% | 2% |  | 39% | 34% | 0% | 11% | 0% |  |  | 0% |  |  | Nc1ncnc2c1ncn2Cc1ccc(C(=O)Nc2cccc(C(F)(F)F)c2)cc1 [Compound 9, 4-((6-Amino-9H-purin-9-yl)methyl)-N-(3-(trifluoromethyl)phenyl)benzamide] | 56.8%
36% | 22% | 0% | 0% | 268 to 270 °C | 38% | 14% | 0% | 17% | 0% |  |  | 0% |  |  | Cc1cn(-c2cc(NC(=O)c3ccc(Cn4cnc5c(N)ncnc54)cc3)cc(C(F)(F)F)c2)cn1 [Compound 12, 4-((6-Amino-9H-purin-9-yl)methyl)-N-(3-(4-methyl-1H-imidazol-1-yl)-5-(trifluoromethyl)phenyl) benzamide] | 
6% | 17% | 0% | 12% |  | 15% | 36% | 0% | 13% | 0% |  |  | 0% |  |  | Cc1cn(-c2cc(NC(=O)c3ccc(Cn4cnc5c(N)nc(Cl)nc54)cc3)cc(C(F)(F)F)c2)cn1 [Compound 16, 4-((6-Amino-2-chloro-9H-purin-9-yl)methyl)-N-(3-(4-methyl-1H-imidazol-1-yl)-5-(trifluoromethyl)phenyl)benzamide] | 5.91%
